Consider 25 molecules from patent publication US9732032B2, “3-aminocyclopentane carboxamide derivatives” (Merck Patent GmbH, priority 2012, dated 2017).

pIC50: −log10 of the molar value.

T1 sequence (P49327 whole entry): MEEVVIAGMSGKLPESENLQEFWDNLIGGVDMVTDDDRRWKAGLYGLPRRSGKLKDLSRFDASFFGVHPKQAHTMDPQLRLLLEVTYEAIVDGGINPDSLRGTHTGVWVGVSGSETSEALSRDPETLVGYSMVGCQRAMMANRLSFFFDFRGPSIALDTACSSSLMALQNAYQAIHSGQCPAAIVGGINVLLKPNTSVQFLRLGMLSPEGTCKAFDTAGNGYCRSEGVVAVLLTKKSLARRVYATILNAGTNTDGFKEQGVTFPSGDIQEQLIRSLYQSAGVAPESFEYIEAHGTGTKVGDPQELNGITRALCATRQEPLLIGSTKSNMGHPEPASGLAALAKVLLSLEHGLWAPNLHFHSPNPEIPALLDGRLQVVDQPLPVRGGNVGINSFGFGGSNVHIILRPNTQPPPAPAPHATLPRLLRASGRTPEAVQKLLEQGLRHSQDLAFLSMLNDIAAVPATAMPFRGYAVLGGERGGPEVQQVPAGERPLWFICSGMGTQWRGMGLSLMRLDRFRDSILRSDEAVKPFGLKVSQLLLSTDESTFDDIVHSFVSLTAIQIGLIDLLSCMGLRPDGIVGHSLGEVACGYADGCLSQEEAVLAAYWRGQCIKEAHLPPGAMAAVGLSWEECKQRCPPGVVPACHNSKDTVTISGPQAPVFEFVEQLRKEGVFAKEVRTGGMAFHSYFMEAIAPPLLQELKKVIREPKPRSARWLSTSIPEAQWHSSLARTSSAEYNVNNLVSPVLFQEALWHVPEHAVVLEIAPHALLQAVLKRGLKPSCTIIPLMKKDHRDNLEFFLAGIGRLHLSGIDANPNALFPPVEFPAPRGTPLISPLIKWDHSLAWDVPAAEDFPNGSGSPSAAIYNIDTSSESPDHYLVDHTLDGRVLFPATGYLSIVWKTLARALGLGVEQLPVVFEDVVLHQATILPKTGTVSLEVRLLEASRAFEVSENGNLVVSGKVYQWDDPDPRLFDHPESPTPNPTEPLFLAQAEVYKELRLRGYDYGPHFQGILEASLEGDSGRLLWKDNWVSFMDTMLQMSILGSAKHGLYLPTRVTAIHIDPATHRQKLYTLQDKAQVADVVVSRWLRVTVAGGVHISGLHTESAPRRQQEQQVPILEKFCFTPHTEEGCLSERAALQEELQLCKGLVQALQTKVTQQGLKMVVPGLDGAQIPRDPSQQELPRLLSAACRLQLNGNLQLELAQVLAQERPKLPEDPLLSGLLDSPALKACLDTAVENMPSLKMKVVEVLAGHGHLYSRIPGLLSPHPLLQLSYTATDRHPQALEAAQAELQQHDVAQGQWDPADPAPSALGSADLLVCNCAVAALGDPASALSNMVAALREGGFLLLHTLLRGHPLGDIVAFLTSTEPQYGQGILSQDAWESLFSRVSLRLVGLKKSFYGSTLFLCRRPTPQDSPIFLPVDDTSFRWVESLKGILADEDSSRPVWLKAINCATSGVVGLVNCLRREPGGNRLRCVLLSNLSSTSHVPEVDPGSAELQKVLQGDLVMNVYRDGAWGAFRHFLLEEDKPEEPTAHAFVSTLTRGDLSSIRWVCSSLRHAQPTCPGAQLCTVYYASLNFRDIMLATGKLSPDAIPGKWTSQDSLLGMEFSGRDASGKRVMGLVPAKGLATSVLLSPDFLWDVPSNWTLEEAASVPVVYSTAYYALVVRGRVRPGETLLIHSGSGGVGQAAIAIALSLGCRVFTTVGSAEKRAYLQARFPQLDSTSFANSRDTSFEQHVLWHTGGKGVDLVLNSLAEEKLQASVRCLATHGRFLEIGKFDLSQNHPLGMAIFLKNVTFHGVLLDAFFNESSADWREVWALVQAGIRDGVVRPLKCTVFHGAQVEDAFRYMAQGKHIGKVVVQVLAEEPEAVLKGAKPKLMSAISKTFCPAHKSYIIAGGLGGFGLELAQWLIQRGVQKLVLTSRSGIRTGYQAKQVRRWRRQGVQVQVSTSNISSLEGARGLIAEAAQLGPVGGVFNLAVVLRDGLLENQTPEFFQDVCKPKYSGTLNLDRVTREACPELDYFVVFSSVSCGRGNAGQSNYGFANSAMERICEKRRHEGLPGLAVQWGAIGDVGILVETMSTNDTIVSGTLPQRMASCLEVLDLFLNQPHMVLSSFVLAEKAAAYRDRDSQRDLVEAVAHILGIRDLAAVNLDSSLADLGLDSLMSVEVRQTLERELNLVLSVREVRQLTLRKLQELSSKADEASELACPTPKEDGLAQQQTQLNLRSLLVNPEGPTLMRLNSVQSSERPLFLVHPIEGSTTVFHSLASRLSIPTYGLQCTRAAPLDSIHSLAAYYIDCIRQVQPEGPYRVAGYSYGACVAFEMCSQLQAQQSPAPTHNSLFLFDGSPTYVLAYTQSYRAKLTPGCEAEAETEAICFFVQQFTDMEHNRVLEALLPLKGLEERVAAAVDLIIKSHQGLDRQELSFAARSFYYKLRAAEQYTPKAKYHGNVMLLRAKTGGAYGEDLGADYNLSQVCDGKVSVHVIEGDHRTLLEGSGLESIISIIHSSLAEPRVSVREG

The assay concerns the target T1, human recombinant full-length fatty acid synthase (FASN) (Homo sapiens, UniProt P49327).
T1 construct: human recombinant full-length fatty acid synthase; made in house; host or cells: SF9 cells
The assay can be described thus: Biochemical activity testing of human fatty acid synthase FASN (NADPH fluorescence intensity assay). Particulars: NADPH fluorescence decrease (ex 340 nm / em 460 nm), 30 minutes at room temperature, read-out: IC50 FASN (enzyme assay). From the text:
aq (aqueous), h (hour), g (gram), L (liter), mg (milligram), MHz (Megahertz), (melting point), eq (equivalent), mL (milliliter), L (microliter), ACN (acetonitrile), AcOH (acetic acid), CDCl3 (deuterated chloroform), CD3OD (deuterated methanol), CH3CN (acetonitrile), c-hex (cyclohexane), DCC (dicyclohexyl carbodiimide), DCM (dichloromethane), DIC (diisopropyl carbodiimide), DIEA (diisopropylethyl-amine), DMF (dimethylformamide), DMSO (dimethylsulfoxide), DMSO-d6 (deuterated dimethylsulfoxide), EDC (1-(3-dimethyl-amino-propyl)-3-ethylcarbodiimide), ESI (Electro-spray ionization), EtOAc (ethyl acetate), Et2O (diethyl ether), EtOH (ethanol), HATU (dimethylamino-([1,2,3]triazolo[4,5-b]pyridin-3-yloxy)-methylene]-dimethylammonium hexafluorophosphate), HPLC (High Performance Liquid Chromatography), i-PrOH (2-propanol), K2CO3 (potassium carbonate), LC (Liquid Chromatography), MeOH (methanol), MgSO4 (magnesium sulfate), MS (mass spectrometry), MTBE (Methyl tert-butyl ether), NaHCO3 (sodium bicarbonate), NaBH4 (sodium borohydride), NMM (N-methyl morpholine), NMR (Nuclear Magnetic Resonance), PyBOP (benzotriazole-1-yl-oxy-trispyrrolidino-phosphonium hexafluorophosphate), RT (room temperature), Rt (retention time), SPE (solid phase extraction), TBTU (2-(1-H-benzotriazole-1-yl)-1,1,3,3-tetramethyluromium tetrafluoro borate), TEA (triethylamine), TFA (trifluoroacetic acid), THF (tetrahydrofuran), TLC (Thin Layer Chromatography), UV (Ultraviolet). Description of the In Vitro Assays Abbreviations: GST=Glutathione-S-transferase FRET=Fluorescence resonance energy transfer HTRF®=(homogenous time resolved fluorescence) HEPES=4-(2-hydroxyethyl)-1-piperazine ethanesulfonic acid buffer DTT=Dithiothreitol BSA=bovine serum albumin CHAPS=detergent; CHAPS=3[(3-cholamidopropyl)dimethylammonio]-1-propanesulfonate Biochemical Activity Testing of Human Fatty Acid Synthase FASN
Fatty acid synthase FASN is a multifunctional enzyme with seven catalytic activities thereby synthesising long chain fatty acids especially palmitoyl-CoA in the presence of co-factor NADPH starting from the substrates acetyl-CoA and malonyl-CoA. The reductive synthesis is realized by the oxidation of NADPH to NADP. Since NADPH has a high fluorescence intensity quantum yield compared to NADP with excitation at 340 nm and emission at 460 nm, the reaction can be monitored via the decrease in fluorescence intensity. The biochemical FASN activity testing was performed as 384 well two-time-point kinetic fluorescence intensity assay format in Greiner low volume medium binding 384-well black microtiter plates in a total assay volume of 8 μl and was used for high throughput screen. In each well 3 μl 40 nM human recombinant full-length fatty acid synthase (produced in-house in SF9 cells) were dispensed in the following assay buffer: 50 mM potassium phosphate buffer pH 7.0, 0.005% (w/v) BSA, 2 mM Glutathione, 0.02% Tween-20. Then 2 μl of 200 μM NADPH in assay buffer were added, followed by the addition of the test compounds in 10 dilution concentrations starting with 30 μM (final concentration) to get a final DMSO content of 1% (v/v). The mixture was incubated for at least 15 min at room temperature. After the pre-incubation the enzymatic reaction was started by the addition of 2 μl substrate solution (80 μM acetyl-CoA, 240 μM malonyl-CoA). A first fluorescence intensity measurement (time point one) was performed with an Envision multimode reader (Perkin Elmer LAS Germany GmbH) at excitation wavelength 340 nm (lamp mode) and emission wavelength 460 nm. The reaction was incubated for 30 minutes at room temperature. After this the fluorescence intensity was measured again in the Envision using the same parameters as described above (second time point measurement). The data were analysed by subtracting the first time point measurement value from the second time point measurement value (after the enzymatic reaction). The differences of the emission signals were determined. […]
Regarding `CCNC(=O)[C@H]1CC[C@@H](N(C)C(=O)c2ccc(-c3ccc(Cl)cc3)cc2)C1` [Compound A62, 4′-chloro-biphenyl-4-carboxylic acid ((1R,3S)-3-ethylcarbamoyl-cyclopentyl)-methyl-amide], the pIC50 was more than 6.52. The result for `CCNC(=O)[C@H]1CC[C@@H](N(C)C(=O)c2ccc(-c3ccc(F)cc3F)cc2)C1` [Compound A63, 2′,4′-difluoro-biphenyl-4-carboxylic acid ((1R,3S)-3-ethylcarbamoyl-cyclopentyl)-methyl-amide] reads more than 6.52; that for `CCNC(=O)[C@H]1CC[C@@H](N(C)C(=O)c2ccc(-c3ccccc3C(F)(F)F)cc2)C1` [Compound A64, 2′-trifluoromethyl-biphenyl-4-carboxylic acid ((1R,3S)-3-ethylcarbamoyl-cyclopentyl)-methyl-amide], more than 6.52. Turning to `CCNC(=O)[C@H]1CC[C@@H](N(C)C(=O)c2ccc(-c3ccccc3C)c(C)c2)C1` [Compound A65, 2,2′-dimethyl-biphenyl-4-carboxylic acid ((1R,3S)-3-ethylcarbamoyl-cyclopentyl)-methyl-amide], the pIC50 is more than 6.52. Then `CN(C(=O)c1ccc(-c2ccccc2)cc1)[C@@H]1CC[C@H](C(=O)NC2(C)CC2)C1` [Compound A67, biphenyl-4-carboxylic acid methyl-[(1R,3S)-3-(1-methyl-cyclopropylcarbamoyl)-cyclopentyl]-amide], with more than 6.52. On to `CN(C(=O)c1ccc(-c2nc3ccccc3o2)cc1)[C@@H]1CC[C@H](C(=O)NC2(C)CC2)C1` [Compound A68, 4-benzoxazol-2-yl-N-methyl-N-[(1R,3S)-3-(1-methyl-cyclopropylcarbamoyl)-cyclopentyl]-benzamide], for which the pIC50 was more than 6.52. Then `CCNC(=O)[C@H]1CC[C@@H](N(C)C(=O)c2ccc(C#Cc3ccc(OC)cc3)cc2)C1` [Compound A69, N-((1R,3S)-3-ethylcarbamoyl-cyclopentyl)-4-(4-methoxy-phenylethynyl)-N-methyl-benzamide], with more than 6.52; and `CCNC(=O)[C@H]1CC[C@@H](N(C)C(=O)c2ccc(C#Cc3ccncc3)cc2)C1` [Compound A70, N-((1R,3S)-3-ethylcarbamoyl-cyclopentyl)-N-methyl-4-pyridin-4-ylethynyl-benzamide], with more than 6.52; and `CN(C(=O)c1ccc(-c2nc3ccccc3s2)cc1)[C@@H]1CC[C@H](C(=O)NC2(C)CC2)C1` [Compound A71, 4-benzothiazol-2-yl-N-methyl-N-[(1R,3S)-3-(1-methyl-cyclopropylcarbamoyl)-cyclopentyl]-benzamide], with more than 6.52. Then `CN(C(=O)c1ccc(C#Cc2ccc(F)cc2)cc1)[C@@H]1CC[C@H](C(=O)NC2(C)CC2)C1` [Compound A72, 4-(4-fluoro-phenylethynyl)-N-methyl-N-[(1R,3S)-3-(1-methyl-cyclopropylcarbamoyl)-cyclopentyl]-benzamide], with more than 6.52. Consider `CCCC1(NC(=O)[C@H]2CC[C@@H](N(C)C(=O)c3ccc(-c4nc5ccccc5o4)cc3)C2)CC1` [Compound A73, 4-benzoxazol-2-yl-N-methyl-N-[(1R,3S)-3-(1-propyl-cyclopropylcarbamoyl)-cyclopentyl]-benzamide], for which the negative logarithm of the IC50 (pIC50) is 5.52 to 6.52. Take `CC[C@H](C)NC(=O)[C@H]1CC[C@@H](N(C)C(=O)c2ccc(-c3nc4ccccc4o3)cc2)C1` [Compound A74, 4-(1,3-benzoxazol-2-yl)-N-methyl-N-[(1R,3S)-3-[[(1S)-1-methylpropyl]-carbamoyl]cyclopentyl]benzamide]: the pIC50 was more than 6.52. In the case of `CC[C@@H](C)NC(=O)[C@H]1CC[C@@H](N(C)C(=O)c2ccc(-c3nc4ccccc4o3)cc2)C1` [Compound A75, 4-(1,3-benzoxazol-2-yl)-N-methyl-N-[(1R,3S)-3-[[(1R)-1-methylpropyl]-carbamoyl]cyclopentyl]benzamide], the pIC50 is more than 6.52. `CN(C(=O)c1ccc(-c2nc3ccccc3o2)cc1)[C@@H]1CC[C@H](C(=O)NC2CCC2)C1` [Compound A76, 4-(1,3-benzoxazol-2-yl)-N-[(1R,3S)-3-(cyclobutylcarbamoyl)cyclopentyl]-N-methyl-benzamide]: the pIC50 was more than 6.52. The result for `CN(C(=O)c1ccc(-c2nc3ccccc3o2)cc1)[C@@H]1CC[C@H](C(=O)N[C@H]2C[C@H](O)C2)C1` [Compound A77, 4-(1,3-benzoxazol-2-yl)-N-[(1R,3S)-3-[(trans-3-hydroxycyclobutyl)-carbamoyl]cyclopentyl]-N-methyl-benzamide] reads more than 6.52. On to `CN(C(=O)c1ccc(-c2nc3ccccc3o2)cc1)[C@@H]1CC[C@H](C(=O)N[C@H]2C[C@@H](O)C2)C1` [Compound A78, 4-(1,3-benzoxazol-2-yl)-N-[(1R,3S)-3-[(cis-3-hydroxycyclobutyl)-carbamoyl]cyclopentyl]-N-methyl-benzamide], for which the pIC50 was more than 6.52. Then `COc1cc(-c2nc3ccccc3o2)ccc1C(=O)N(C)[C@@H]1CC[C@H](C(=O)NC2(C)CC2)C1` [Compound A79, 4-(1,3-benzoxazol-2-yl)-2-methoxy-N-methyl-N-[(1R,3S)-3-[(1-methylcyclopropyl)carbamoyl]cyclopentyl]benzamide], with 5.52 to 6.52. On to `CN(C(=O)c1ccc(-c2ccncc2)cc1)[C@@H]1CC[C@H](C(=O)NC2(C)CC2)C1` [Compound A80, N-methyl-N-[(1R,3S)-3-[(1-methylcyclopropyl)carbamoyl]cyclopentyl]-4-(4-pyridyl)benzamide], for which the negative-log IC50 (pIC50) is more than 6.52.

As to `CN(C(=O)c1ccc(-c2ccc(C#N)cc2)cc1)[C@@H]1CC[C@H](C(=O)NC2(C)CC2)C1` [Compound A81, 4-(4-cyanophenyl)-N-methyl-N-[(1R,3S)-3-[(1-methylcyclopropyl)-carbamoyl]cyclopentyl]benzamide], the pIC50 is more than 6.52.

As to `CN(C)C(=O)[C@H]1CC[C@@H](N(C)C(=O)c2ccc(-c3nc4ccccc4o3)cc2)C1` [Compound A82, 4-benzoxazol-2-yl-N-((1R,3S)-3-dimethylcarbamoyl-cyclopentyl)-N-methyl-benzamide], the pIC50 was 5.52 to 6.52.

For `CN(C(=O)c1ccc(-c2cccnc2)cc1)[C@@H]1CC[C@H](C(=O)NC2(C)CC2)C1` [Compound A83, N-methyl-N-[(1R,3S)-3-(1-methyl-cyclopropylcarbamoyl)-cyclopentyl]-4-pyridin-3-yl-benzamide], the negative logarithm of the IC50 (pIC50) is more than 6.52. Turning to `CN(C(=O)c1ccc(-c2nc3ccccc3o2)cc1)[C@@H]1CC[C@H](C(=O)NC2(C)CCC2)C1` [Compound A84, 4-benzoxazol-2-yl-N-methyl-N-[(1R,3S)-3-(1-methyl-cyclobutylcarbamoyl)-cyclopentyl]-benzamide], the pIC50 is more than 6.52. Consider `COc1cc(C(=O)N(C)[C@@H]2CC[C@H](C(=O)NC3(C)CC3)C2)ccc1-c1nc2ccccc2o1` [Compound A85, 4-benzoxazol-2-yl-3-methoxy-N-methyl-N-[(1R,3S)-3-(1-methyl-cyclopropylcarbamoyl)-cyclopentyl]-benzamide], for which the pIC50 is more than 6.52. The result for `CN(C(=O)c1ccc(-c2nc3ccccc3o2)cc1)[C@@H]1CC[C@H](C(N)=O)C1` [Compound A86, 4-benzoxazol-2-yl-N-((1R,3S)-3-carbamoyl-cyclopentyl)-N-methyl-benzamide] reads 5.52 to 6.52. Then `CCNC(=O)[C@H]1CC[C@@H](N(C)C(=O)c2ccc(-c3cn4ccc(C#N)cc4n3)cc2)C1` [Compound A87, 4-(7-cyano-imidazo[1,2-a]pyridin-2-yl)-N-((1R,3S)-3-ethylcarbamoyl-cyclopentyl)-N-methyl-benzamide], with 5.52 to 6.52.

Broadly, the pIC50 is the negative decadic logarithm of the IC50, by convention in mol/L.
